In general, IC50 refers to the point on the concentration scale where inhibition reaches its midpoint. Lower therefore signals inhibition by little substance.

Assay type in all cases: biochemical
Test [1] has as its target PDE1A (PDE 1A3) (Homo sapiens, UniProt P54750). Nature of the test: In vitro HTRF PDE1 inhibition assay (PDE1A). The note with it: PDE1A (1A3); 100 nM cyclic GMP, calmodulin, 45 minutes at 37° C. The source says:
(§1) An exemplary procedure for the in vitro Homogenous Time Resolved Fluorescence (HTRF) assay, which can be used to determine the inhibitory action of compounds of the invention toward PDE1 or its isoforms, follows.
(§2) The HTRF PDE1 assay utilized the HTRF technology, which is based on the competition between unlabeled cyclic nucleotide and cyclic nucleotide labeled with XL665 for the binding to cyclic nucleotide-specific antibody labeled with cryptate. The HTRF signal is thus inversely proportional to the concentration of cyclic nucleotide being measured. Since phosphodiesterases break down cyclic nucleotides the HTRF signal was used to determine PDE activity.
(§3) The Cisbio cGMP HTRF assay kit (Cat no: 62GM2PEC) was utilized. Cyclic GMP was diluted to 200 nM in HTRF assay buffer (1 mM CaCl2, 10 mM MgCl2, 10 mM Tris-HCl, 0.1% BSA, pH7.4). 10 μl of compound or DMSO was diluted in 200 nM cyclic GMP solution and added to wells of a 96 well white plate to give 100 nM cyclic GMP in 1% DMSO final concentration. PDE (1A3, 1B or 1C) was diluted to 2× working concentration in HTRF assay buffer with 4 μg/ml Calmodulin, and 10 μl was added to initiate the reaction. The plate was then incubated for 45 minutes at 37° C. d2-Labelled cyclic GMP and anti-cGMP cryptate were diluted in 50 mM phosphate buffer, 0.8M KF, 1% Triton X100, 0.2% BSA, pH7.0. Following incubation 10 μl d2-cGMP, then 10 μl anti cGMP cryptate were added to each well and the plate was incubated for 45 minutes at rt. The plate was then read on Perkin Elmer Victor at 2 different FRET readings ex/emm 340 nm/665 nm and 340 nm/615 nm.
(§4) Compounds having an IC50 of <1 μM, are denoted as +++. Compounds having an IC50 of 1-10 μM, are denoted as ++. Compounds having an IC50 of 10-100 μM, are denoted as +.
(TR-FRET usually uses a lanthanide donor and a delayed reading to cut background.)

For test [2], the target named is PDE1B (Homo sapiens, UniProt Q01064). Nature of the test: In vitro HTRF PDE1 inhibition assay (PDE1B). The conditions noted are these: 100 nM cyclic GMP, calmodulin, 45 minutes at 37° C.
Procedure: The Cisbio cGMP HTRF assay kit (Cat no: 62GM2PEC) was utilized. Cyclic GMP was diluted to 200 nM in HTRF assay buffer (1 mM CaCl2, 10 mM MgCl2, 10 mM Tris-HCl, 0.1% BSA, pH7.4). […] PDE (1A3, 1B or 1C) was diluted to 2× working concentration in HTRF assay buffer with 4 μg/ml Calmodulin, and 10 μl was added to initiate the reaction. The plate was then incubated for 45 minutes at 37° C. d2-Labelled cyclic GMP and anti-cGMP cryptate were diluted in 50 mM phosphate buffer, 0.8M KF, 1% Triton X100, 0.2% BSA, pH7.0. Following incubation 10 μl d2-cGMP, then 10 μl anti cGMP cryptate were added to each well and the plate was incubated for 45 minutes at rt. The plate was then read on Perkin Elmer Victor at 2 different FRET readings ex/emm 340 nm/665 nm and 340 nm/615 nm.
For test [3], the target named is PDE1C (Homo sapiens, UniProt Q14123). In words: In vitro HTRF PDE1 inhibition assay (PDE1C).
From the text: as §1, §2, §3, §4

PDE1B, sequence (Q01064 whole entry): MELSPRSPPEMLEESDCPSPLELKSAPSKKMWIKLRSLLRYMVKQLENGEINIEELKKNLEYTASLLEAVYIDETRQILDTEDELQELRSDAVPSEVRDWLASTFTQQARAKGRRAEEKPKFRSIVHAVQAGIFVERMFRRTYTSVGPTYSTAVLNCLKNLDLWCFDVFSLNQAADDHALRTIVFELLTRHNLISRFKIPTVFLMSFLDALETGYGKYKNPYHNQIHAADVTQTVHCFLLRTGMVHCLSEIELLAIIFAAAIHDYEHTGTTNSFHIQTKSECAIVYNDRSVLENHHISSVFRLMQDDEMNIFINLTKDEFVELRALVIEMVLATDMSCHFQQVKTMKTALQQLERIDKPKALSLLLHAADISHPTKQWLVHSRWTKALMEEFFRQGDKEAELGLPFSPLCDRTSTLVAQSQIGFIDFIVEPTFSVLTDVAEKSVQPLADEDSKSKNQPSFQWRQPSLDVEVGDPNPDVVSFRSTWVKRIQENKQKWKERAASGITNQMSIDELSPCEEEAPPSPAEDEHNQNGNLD
PDE1A (PDE 1A3), sequence (P54750 whole entry, canonical isoform): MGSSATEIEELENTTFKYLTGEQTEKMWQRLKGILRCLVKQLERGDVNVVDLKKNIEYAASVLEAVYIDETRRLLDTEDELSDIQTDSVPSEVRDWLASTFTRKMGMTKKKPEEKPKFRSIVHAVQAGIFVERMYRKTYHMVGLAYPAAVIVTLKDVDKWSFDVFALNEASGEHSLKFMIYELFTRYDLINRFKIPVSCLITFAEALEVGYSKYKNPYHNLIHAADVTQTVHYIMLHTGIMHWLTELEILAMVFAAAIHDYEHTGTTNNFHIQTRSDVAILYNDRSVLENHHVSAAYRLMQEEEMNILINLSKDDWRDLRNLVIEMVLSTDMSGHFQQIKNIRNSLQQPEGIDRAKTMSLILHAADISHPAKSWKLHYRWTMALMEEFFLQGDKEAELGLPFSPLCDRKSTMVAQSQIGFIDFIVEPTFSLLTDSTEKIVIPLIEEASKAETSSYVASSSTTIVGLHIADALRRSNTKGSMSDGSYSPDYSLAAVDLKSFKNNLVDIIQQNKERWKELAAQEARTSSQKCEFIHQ
PDE1C, sequence (Q14123 whole entry): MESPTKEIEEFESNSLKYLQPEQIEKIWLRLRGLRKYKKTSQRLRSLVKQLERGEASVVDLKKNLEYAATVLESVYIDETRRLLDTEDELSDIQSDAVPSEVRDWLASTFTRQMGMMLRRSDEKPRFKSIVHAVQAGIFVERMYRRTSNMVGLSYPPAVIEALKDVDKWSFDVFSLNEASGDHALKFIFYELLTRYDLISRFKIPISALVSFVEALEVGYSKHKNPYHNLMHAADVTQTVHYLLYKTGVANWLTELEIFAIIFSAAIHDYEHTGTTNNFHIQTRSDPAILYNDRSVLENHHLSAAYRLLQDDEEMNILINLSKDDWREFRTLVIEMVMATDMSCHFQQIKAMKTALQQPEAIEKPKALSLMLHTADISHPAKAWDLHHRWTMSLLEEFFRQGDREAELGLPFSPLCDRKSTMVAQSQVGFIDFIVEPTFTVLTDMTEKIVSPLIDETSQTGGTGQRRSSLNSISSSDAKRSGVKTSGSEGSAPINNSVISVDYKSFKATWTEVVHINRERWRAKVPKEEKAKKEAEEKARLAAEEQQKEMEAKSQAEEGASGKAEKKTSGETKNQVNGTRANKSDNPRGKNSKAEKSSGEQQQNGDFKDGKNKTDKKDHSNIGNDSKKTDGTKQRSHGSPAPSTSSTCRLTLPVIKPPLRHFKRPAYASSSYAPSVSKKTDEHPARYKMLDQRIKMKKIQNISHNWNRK

On to `O=c1c2cnc(C3COC3)n2nc2n1CC[C@H](c1ccc(Cl)cc1)N2` [Example 165], for which the figures for the IC50 in test [1], in test [2] and in test [3] were under 1 µM, under 1 µM and 1 to 10 µM, respectively.
For `CC(C)c1ncnc2c(=O)n3c(nc12)NC(c1ccc(Cl)cc1)CC3` (stereo not drawn) [Example 176], the IC50 in test [1] is under 1 µM; in test [2], under 1 µM; in test [3], 1 to 10 µM.
With `O=c1c2cnc([C@@H]3CCOC3)n2nc2n1CC[C@H](c1ccc(Cl)cc1)N2` [Example 224], the IC50 is under 1 µM in test [1], under 1 µM in test [2] and 1 to 10 µM in test [3].
Consider `O=c1c2cnc([C@H]3CCOC3)n2nc2n1CC[C@H](c1ccc(Cl)cc1)N2` [Example 225], for which the IC50 in test [1], in test [2] and in test [3] was under 1 µM each time.
As to `CC[C@@H](C)c1ncc2c(=O)n3c(nn12)N[C@@H](c1ccc(Cl)cc1)CC3` [Example 226], the IC50 in test [1], in test [2] and in test [3] was under 1 µM throughout.
Consider `CC[C@H](C)c1ncc2c(=O)n3c(nn12)N[C@@H](c1ccc(Cl)cc1)CC3` [Example 227], for which the IC50 in test [1], in test [2] and in test [3] was under 1 µM in each case.
Turning to `O=c1c2cnc(C3(C(F)(F)F)CC3)n2nc2n1CC[C@H](c1ccc(Cl)cc1)N2` [Example 238], the IC50 was under 1 µM in test [1], under 1 µM in test [2] and 1 to 10 µM in test [3].
As for `COC1(c2ncc3c(=O)n4c(nn23)N[C@@H](c2ccc(Cl)cc2)CC4)CC1` [Example 239], the results for the concentration for half-maximal inhibition (IC50) in test [1], in test [2] and in test [3] were under 1 µM, under 1 µM and 1 to 10 µM, respectively.
On to `CC(C)(O)c1ncc2c(=O)n3c(nn12)N[C@@H](c1ccc(Cl)cc1)CC3` [Example 242], for which the figures for the half-inhibitory concentration (IC50) in test [1], in test [2] and in test [3] were under 1 µM, under 1 µM and 1 to 10 µM, respectively.
For the compound `CO[C@@H](C)c1ncc2c(=O)n3c(nn12)N[C@@H](c1ccc(Cl)cc1)CC3` [Example 259], the IC50 in test [1], in test [2] and in test [3] was under 1 µM throughout.
For the compound `CO[C@H](C)c1ncc2c(=O)n3c(nn12)N[C@@H](c1ccc(Cl)cc1)CC3` [Example 260], the IC50 in test [1] was under 1 µM; in test [2], under 1 µM; in test [3] it was 1 to 10 µM.
`O=c1c2ncnc(C3CCOCC3)c2nc2n1CCC(c1ccc(Cl)cc1)N2` (stereo not drawn) [Example 265, 7-(4-Chlorophenyl)-4-(tetrahydro-2H-pyran-4-yl)-5,7,8,9-tetrahydro-11H-dipyrimido[1,2-a:5′,4′-d]pyrimidin-11-one]: the IC50 in test [1] was under 1 µM; in test [2] it was under 1 µM; in test [3], 1 to 10 µM.

The values are drawn from patent publication US20160083400A1, “TRICYCLIC GUANIDINE DERIVATIVE” (Sunovion Pharmaceuticals Inc., priority 2014, published 2016).
